Consider one molecule from patent US5506359A, “Cocaine analogues and their use as cocaine drug therapies and therapeutic and imaging agents for neurodegenerative disorders” (priority 1993, dated 1996).

Assay [1] concerns squirrel monkeys (i.v. drug self-administration). The assay is described as follows: Drug self-administration under second order schedule. Format: in vivo, squirrel monkeys (Saimiri sciureus). An excerpt:
To determine whether CFT also mimicked cocaine's behavioral effects in vivo (specifically the reinforcing and interoceptive effects), squirrel monkeys were trained to respond under a second order schedule of i.v. drug self-administration (see detailed description below). […] The results were consistent with the view that the reinforcing effects of cocaine are mediated by cocaine recognition sites associated with the dopamine uptake system.
For drug discrimination and self administration studies, experiments are conducted with rodents or squirrel monkeys (Saimiri sciureus) seated in standard primate chairs enclosed in ventilated, sound-attenuating chambers. The chairs are equipped with response levers, stimulus lights, food pellet dispensers, and pumps for injecting drugs intravenously. […] Response rates and temporal patterns of responding are monitored continuously during daily experimental sessions. Effects of drugs are analyzed in individual subjects by comparing performances during drug sessions with those during control sessions. […]
Initially, responding is maintained using an injection dose of 100 μg/kg cocaine, which usually is optimal for developing i.v. self-administration.After consistent rates and patterns of responding are maintained by cocaine, the effects of a full range of doses of cocaine and of selected candidate drugs is determined. […]

Assay [2] deals with squirrel monkeys trained to discriminate cocaine. In words: Drug discrimination (cocaine versus saline). To be noted: training dose cocaine 0.3-0.56 mg/kg. Format: in vivo, squirrel monkeys (Saimiri sciureus). The procedure:
The subjective (interoceptive) effects of cocaine were studied in monkeys through the use of a drug discrimination procedure. […] Squirrel monkeys were trained to discriminate cocaine (0.3-0.56 mg/kg) from saline using a two-level choice procedure.
For drug discrimination and self administration studies, experiments are conducted with rodents or squirrel monkeys (Saimiri sciureus) seated in standard primate chairs enclosed in ventilated, sound-attenuating chambers. The chairs are equipped with response levers, stimulus lights, food pellet dispensers, and pumps for injecting drugs intravenously. Four animals are studied in each experiment, with each subject receiving all drug treatments whenever possible. Response rates and temporal patterns of responding are monitored continuously during daily experimental sessions. Effects of drugs are analyzed in individual subjects by comparing performances during drug sessions with those during control sessions. […]
Drug discrimination experiments are conducted using cumulative-dose procedures similar to those described in Madras et al. (Soc. Neurosci. Abst. 16:14, 1990; Pharmacol. Biochem. Behav. 35:949-953, 1990) and Spealman et al. (J. Pharmacol. Exp. Ther. 258:945-953, 1991). […] Good agreement has been found between the effects of drugs determined by cumulative-dose procedures and by single-dose procedures when appropriate parameters are selected. […]

Assay [3] deals with dopamine transporter, human caudate nucleus and putamen (Homo sapiens, UniProt Q01959). The assay is described as follows: [^3 H]CFT binding to homogenates of human caudate nucleus and putamen. The note with it: human caudate nucleus and putamen homogenates. An excerpt: In order to determine whether [^3 H]CFT labels sites associated with the dopamine transporter, the binding of [^3 H]CFT to homogenates of human caudate nucleus and putamen, was characterized.

Assay [4] concerns [^3 H]CFT binding sites in monkey caudate-putamen. To be noted: cited from earlier work.

Chain of dopamine transporter, human caudate nucleus and putamen (Q01959 whole entry): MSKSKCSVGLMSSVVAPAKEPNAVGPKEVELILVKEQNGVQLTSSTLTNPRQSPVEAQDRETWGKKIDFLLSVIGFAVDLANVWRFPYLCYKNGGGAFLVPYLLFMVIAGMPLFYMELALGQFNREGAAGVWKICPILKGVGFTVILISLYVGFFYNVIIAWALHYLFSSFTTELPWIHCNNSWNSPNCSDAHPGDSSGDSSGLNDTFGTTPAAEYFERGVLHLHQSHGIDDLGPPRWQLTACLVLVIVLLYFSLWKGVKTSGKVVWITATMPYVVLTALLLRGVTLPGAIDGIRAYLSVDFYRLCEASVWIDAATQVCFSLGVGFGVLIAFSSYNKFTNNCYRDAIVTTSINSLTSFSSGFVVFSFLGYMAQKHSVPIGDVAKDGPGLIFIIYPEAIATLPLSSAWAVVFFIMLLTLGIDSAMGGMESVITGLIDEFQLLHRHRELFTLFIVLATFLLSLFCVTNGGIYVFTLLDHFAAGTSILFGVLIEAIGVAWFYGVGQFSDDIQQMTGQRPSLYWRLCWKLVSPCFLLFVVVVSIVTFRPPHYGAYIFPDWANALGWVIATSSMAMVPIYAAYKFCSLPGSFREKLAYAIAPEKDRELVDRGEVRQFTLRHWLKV

As to `COC(=O)[C@H]1[C@@H](c2ccc(F)cc2)C[C@@H]2CC[C@H]1N2C` [4'a (CFT), 2β-carbomethoxy-3β-(4-fluorophenyl)tropane], the “potency in maintaining responding relative to cocaine” value in assay [1] is listed as “approximately six”. Also, the “generalization to cocaine cue” value in assay [2] was “fully generalized to the cocaine cue”. The “rank order of potency for inhibiting [^3 H]CFT binding” value in assay [3] is given as “Lu 19-005>CFT, mazindol, GBR 12909>(-)-cocaine>bupropion>(+)-cocaine”. For the same molecule, the “extent of displacement of [^3 H]CFT” value in assay [4] is “full displacement of [^3 H]CFT”. Besides, in assay [4] (competition curves), the “number of binding components” value is listed as “at least two binding components”. The “steepness of competition curve” value in assay [4] (displacement of [^3 H]CFT) is reported as 0.61-0.89.
